Measurements from the supplement of paper PMC4862054.

Legend:
Conditions in all cases: incubation time: 72 h
[1] = test system: BT-474; assay: normalised response (% of control), CellTox Green; higher = less cell death (100 = DMSO, 0 = benzethonium chloride kill control)
Outline: (§1)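 For each plate, 0.1 % DMSO was set to 100 and a positive kill control to 0. Breast cancer cell lines (20 µl suspension) were seeded into 384-well plates already holding compound at 5 concentrations in 10-fold steps over a 10,000-fold range chosen per compound, and incubated for 72 h. CellTox Green fluorescence at 485/520 nm was read before CellTiter-Glo luminescence, which followed 10 min at room temperature. Each value is the normalised signal at one concentration.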

[2] = test system: BT-549; assay: as above
Outline: as §1

[3] = test system: CAL-120; assay: as above
Outline: as §1

[4] = test system: CAL-148; assay: as above
Outline: as §1

[5] = test system: CAL-51; assay: as above
Outline: as §1

[6] = test system: CAL-85-1; assay: as above
Outline: as §1

[7] = test system: DU-4475; assay: as above
Outline: as §1

[8] = test system: HCC1599; assay: as above
Outline: as §1

[9] = test system: HCC1937; assay: as above
Outline: as §1

[10] = test system: HDQ-P1; assay: as above
Outline: as §1

[11] = test system: Hs578T; assay: as above
Outline: as §1

[12] = test system: MCF-10A; assay: as above
Outline: as §1

[13] = test system: MDA-MB-231; assay: as above
Outline: as §1

[14] = test system: MDA-MB-436; assay: as above
Outline: as §1

[15] = test system: MDA-MB-453; assay: as above
Outline: as §1

[16] = test system: MDA-MB-468; assay: as above
Outline: as §1

[17] = test system: MFM-223; assay: as above
Outline: as §1

[18] = test system: BT-474; assay: normalised response (% of control), CellTiter-Glo; higher = more viable cells (100 = DMSO, 0 = benzethonium chloride kill control)
Method: (§2)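 DSRT, 72 h incubation, CellTox Green / CellTiter-Glo readout. Signal is normalised to DMSO and benzethonium chloride controls. Value is the normalised response at dose 3.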

[19] = test system: BT-549; assay: as above
Method: as §2

[20] = test system: CAL-120; assay: as above
Method: as §2

[21] = test system: CAL-148; assay: as above
Method: as §2

[22] = test system: CAL-51; assay: as above
Method: as §2

[23] = test system: CAL-85-1; assay: as above
Method: as §2

[24] = test system: DU-4475; assay: as above
Method: as §2

[25] = test system: HCC1143; assay: as above
Method: as §2

[26] = test system: HCC1599; assay: as above
Method: as §2

[27] = test system: HCC1937; assay: as above
Method: as §2

[28] = test system: HDQ-P1; assay: as above
Method: as §2

[29] = test system: Hs578T; assay: as above
Method: as §2

[30] = test system: MCF-10A; assay: as above
Method: as §2

[31] = test system: MDA-MB-231; assay: as above
Method: as §2

[32] = test system: MDA-MB-436; assay: as above
Method: as §2

[33] = test system: MDA-MB-453; assay: as above
Method: as §2

[34] = test system: MDA-MB-468; assay: as above
Method: as §2

[35] = test system: MFM-223; assay: as above
Method: as §2

[36] = test system: SK-BR-3; assay: as above
Method: as §2

[37] = test system: HCC1143; assay: normalised response (% of control), CellTox Green; higher = less cell death (100 = DMSO, 0 = benzethonium chloride kill control)
Outline: as §1

| Structure (SMILES) | normalised response [1] [%] | normalised response [2] [%] | normalised response [3] [%] | normalised response [4] [%] | normalised response [5] [%] | normalised response [6] [%] | normalised response [7] [%] | normalised response [8] [%] | normalised response [9] [%] | normalised response [10] [%] | normalised response [11] [%] | normalised response [12] [%] | normalised response [13] [%] | normalised response [14] [%] | normalised response [15] [%] | normalised response [16] [%] | normalised response [17] [%] | normalised response [18] [%] | normalised response [19] [%] | normalised response [20] [%] | normalised response [21] [%] | normalised response [22] [%] | normalised response [23] [%] | normalised response [24] [%] | normalised response [25] [%] | normalised response [26] [%] | normalised response [27] [%] | normalised response [28] [%] | normalised response [29] [%] | normalised response [30] [%] | normalised response [31] [%] | normalised response [32] [%] | normalised response [33] [%] | normalised response [34] [%] | normalised response [35] [%] | normalised response [36] [%] | normalised response [37] [%] |
| --- | --- | --- | --- | --- | --- | --- | --- | --- | --- | --- | --- | --- | --- | --- | --- | --- | --- | --- | --- | --- | --- | --- | --- | --- | --- | --- | --- | --- | --- | --- | --- | --- | --- | --- | --- | --- | --- |
| Cc1cnc(NC(=O)Nc2cc(Br)c(C)cc2OC[C@@H]2CNCCO2)cn1 [Rabusertib] (10 nM) | 102 | 95.7 | 102 | 98.4 | 106 | 95.2 | 106 | 110 | 119 | 94.3 | 108 | 103 | 122 | 107 | 106 | 89.4 | 109 | 97.6 | 98.4 | 109 | 112 | 91.9 | 102 | 104 | 104 | 106 | 99.7 | 96.3 | 107 | 107 | 109 | 115 | 118 | 108 | 104 | 110 |  |
| CC(=O)Nc1cccc(-n2c(=O)n(C3CC3)c(=O)c3c(Nc4ccc(I)cc4F)n(C)c(=O)c(C)c32)c1 [Trametinib] (2.5 nM) | 100 | 94.2 | 96.3 | 102 | 117 | 86.5 | 82.8 | 117 | 117 | 98.6 | 89.9 | 80.7 |  | 101 | 103 | 120 | 72.4 | 94 | 100 | 101 | 99.1 | 112 | 97.4 | 24.3 | 89.3 | 99.2 | 86.8 | 70.1 | 90.8 | 47.4 | 86.5 | 96.1 | 109 | 93.3 | 106 | 98.4 | 112 |
| CCCCC(=O)OCC(=O)[C@]1(O)Cc2c(O)c3c(c(O)c2[C@@H](O[C@H]2C[C@H](NC(=O)C(F)(F)F)[C@H](O)[C@H](C)O2)C1)C(=O)c1c(OC)cccc1C3=O [Valrubicin] (50 nM) | 103 | 121 | 111 | 76.3 | 76.7 | 118 | 109 | 115 |  | 107 | 114 | 106 | 122 | 101 | 108 | 152 | 108 | 98.2 | 86.2 | 98.4 | 97 | 72.7 | 98.8 | 84 | 104 | 91.7 | 97.9 | 102 | 101 | 101 | 97.4 | 92.2 | 118 | 92.9 | 101 | 94.8 | 111 |
| CCCS(=O)(=O)Nc1ccc(F)c(C(=O)c2c[nH]c3ncc(-c4ccc(Cl)cc4)cc23)c1F [Vemurafenib] (100 nM) | 98.3 | 94.2 | 97.7 | 97.3 | 76.9 | 102 | 96.1 | 94 | 92.1 | 108 | 103 | 91.9 |  | 72.4 | 97.9 | 98.4 | 94.2 | 96.9 | 97.9 | 93.3 | 93.9 | 88.6 | 91.8 | 86.5 | 94.7 | 95.5 | 97.7 | 94.3 | 95.9 | 96.8 | 93.4 | 95.9 | 79.3 | 91.7 | 89.4 | 84.8 | 82.2 |
